Test results published in ChEMBL document CHEMBL4630909 (2021).
Calls of active or inactive are those of the source. The calls are words filed in the database; no cut-off is given here.

Assays:
[1] = molecular target: Acetylcholine receptor subunit alpha (Homo sapiens, UniProt P02708); assay: (§1) Cross screening panel
[2] = molecular target: 5-hydroxytryptamine receptor 3A (Homo sapiens, UniProt P46098); assay: as §1
[3] = molecular target: Histone acetyltransferase KAT2B (Homo sapiens, UniProt Q92831); assay: PCAF DiscoverX BROMOscan
[4] = molecular target: Histamine H4 receptor (Homo sapiens) (UniProt Q9H3N8); conditions: Compound concentration 10.0 uM
[5] = molecular target: Voltage-gated potassium channel, IKs; KCNQ1(Kv7.1)/KCNE1(MinK) (Homo sapiens, UniProt P15382+P51787); assay: as §1; format: protein-complex assay
[6] = molecular target: GABA-A receptor; anion channel; assay: as §1; format: protein-complex assay
[7] = molecular target: Transcription initiation factor TFIID subunit 1 (Homo sapiens, UniProt P21675); assay: TAF1(2) DiscoverX BROMOscan
[8] = molecular target: Muscarinic acetylcholine receptor M2 (Homo sapiens) (UniProt P08172); conditions: Compound concentration 10.0 uM
[9] = molecular target: Bromodomain-containing protein 7 (Homo sapiens, UniProt Q9NPI1); assay: BRD7 DiscoverX BROMOscan
D(2) dopamine receptor = D(2) dopamine receptor (Homo sapiens, UniProt P14416); conditions: Compound concentration 10.0 uM
[10] = molecular target: Muscarinic acetylcholine receptor M4 (Homo sapiens) (UniProt P08173); conditions: Compound concentration 10.0 uM
[11] = molecular target: 5-hydroxytryptamine receptor 5A (Homo sapiens) (UniProt P47898); conditions: Compound concentration 10.0 uM
[12] = molecular target: 5-hydroxytryptamine receptor 2C (Homo sapiens) (UniProt P28335); conditions: Compound concentration 10.0 uM
[13] = molecular target: Alpha-1B adrenergic receptor (Homo sapiens) (UniProt P35368); conditions: Compound concentration 10.0 uM
[14] = molecular target: ATPase family AAA domain-containing protein 2 (Homo sapiens, UniProt Q6PL18); assay: ATAD2A DiscoverX BROMOscan
CREB-binding protein = CREB-binding protein (Homo sapiens, UniProt Q92793); assay: CREBBP DiscoverX BROMOscan
[15] = molecular target: 5-hydroxytryptamine receptor 1A (Homo sapiens) (UniProt P08908); conditions: Compound concentration 10.0 uM
[16] = molecular target: Transcription initiation factor TFIID subunit 1-like (Homo sapiens, UniProt Q8IZX4); assay: TAF1L(2) DiscoverX BROMOscan
[17] = molecular target: D(3) dopamine receptor (Homo sapiens) (UniProt P35462); conditions: Compound concentration 10.0 uM
[18] = molecular target: Alpha-2B adrenergic receptor (Homo sapiens) (UniProt P18089); conditions: Compound concentration 10.0 uM
[19] = molecular target: Bromodomain-containing protein 9 (Homo sapiens, UniProt Q9H8M2); assay: BRD9 DiscoverX BROMOscan
[20] = molecular target: SWI/SNF-related matrix-associated actin-dependent regulator of chromatin subfamily A member 4 (Homo sapiens, UniProt P51532); assay: SMARCA4 DiscoverX BROMOscan
[21] = molecular target: Histamine H3 receptor (Homo sapiens) (UniProt Q9Y5N1); conditions: Compound concentration 10.0 uM
[22] = molecular target: Histone acetyltransferase p300 (Homo sapiens, UniProt Q09472); assay: EP300 DiscoverX BROMOscan
[23] = molecular target: T1, GABA-A receptor; anion channel (Rattus norvegicus) (UniProt O09028+P15431+P18506+P18508+P19969+P20236+P23574+P23576+P28471+P28473+P30191+P62813+P63079+P63138+Q91ZM7+Q9ES14); conditions: Compound concentration 10.0 uM
[24] = molecular target: T1, GABA-A receptor; anion channel (Rattus norvegicus); conditions: Compound concentration 10.0 uM; remark: listed apart in the source
Protein polybromo-1 [25] = molecular target: T2, Protein polybromo-1 (Homo sapiens, UniProt Q86U86); assay: PBRM1(5) DiscoverX BROMOscan
[26] = molecular target: 5-hydroxytryptamine receptor 2B (Homo sapiens) (UniProt P41595); conditions: Compound concentration 10.0 uM
[27] = molecular target: Muscarinic acetylcholine receptor M3 (Homo sapiens) (UniProt P20309); conditions: Compound concentration 10.0 uM
[28] = molecular target: 5-hydroxytryptamine receptor 3A (Homo sapiens) (UniProt P46098); conditions: Compound concentration 10.0 uM
[29] = molecular target: Beta-1 adrenergic receptor (Homo sapiens) (UniProt P08588); conditions: Compound concentration 10.0 uM
[30] = molecular target: Transcription intermediary factor 1-alpha (Homo sapiens, UniProt O15164); assay: TRIM24(PHD,Bromo.) DiscoverX BROMOscan
[31] = molecular target: Muscarinic acetylcholine receptor M5 (Homo sapiens) (UniProt P08912); conditions: Compound concentration 10.0 uM
[32] = molecular target: 5-hydroxytryptamine receptor 6 (Homo sapiens) (UniProt P50406); conditions: Compound concentration 10.0 uM
[33] = molecular target: Bromodomain and WD repeat-containing protein 1 (Homo sapiens, UniProt Q9NSI6); assay: WDR9(2) DiscoverX BROMOscan
[34] = molecular target: 5-hydroxytryptamine receptor 2A (Homo sapiens, UniProt P28223); conditions: Compound concentration 10.0 uM
[35] = molecular target: SWI/SNF-related matrix-associated actin-dependent regulator of chromatin subfamily A member 2 (Homo sapiens, UniProt P51531); assay: SMARCA2 DiscoverX BROMOscan
[36] = molecular target: Bromodomain and PHD finger-containing protein 3 (Homo sapiens, UniProt Q9ULD4); assay: BRPF3 DiscoverX BROMOscan
Rattus norvegicus = organism: Rattus norvegicus; conditions: Compound concentration 10.0 uM
[37] = molecular target: Alpha-1A adrenergic receptor (Homo sapiens) (UniProt P35348); conditions: Compound concentration 10.0 uM
[38] = molecular target: ATPase family AAA domain-containing protein 2B (Homo sapiens, UniProt Q9ULI0); assay: ATAD2B DiscoverX BROMOscan
[39] = molecular target: Delta-type opioid receptor (Homo sapiens) (UniProt P41143); conditions: Compound concentration 10.0 uM
[40] = molecular target: Bromodomain-containing protein 1 (Homo sapiens, UniProt O95696); assay: BRD1 DiscoverX BROMOscan
[41] = molecular target: Histamine H2 receptor (Homo sapiens) (UniProt P25021); conditions: Compound concentration 10.0 uM
[42] = molecular target: Chromatin remodeling regulator CECR2 (Homo sapiens, UniProt Q9BXF3); assay: CECR2 DiscoverX BROMOscan
C-C motif chemokine 2 = C-C motif chemokine 2 (Homo sapiens, UniProt P13500); assay: In vitro inhibition of MCP-1 in Lipopolysaccharide-stimulated human whole blood; format: tissue-based
[43] = molecular target: Alpha-1D adrenergic receptor (Homo sapiens) (UniProt P25100); conditions: Compound concentration 10.0 uM
[44] = molecular target: GABA-A receptor; anion channel; assay: as §1; format: protein-complex assay; remark: listed apart in the source
[45] = molecular target: Alpha-2A adrenergic receptor (Homo sapiens) (UniProt P08913); conditions: Compound concentration 10.0 uM
Protein polybromo-1 [46] = molecular target: T2, Protein polybromo-1; assay: PBRM1(2) DiscoverX BROMOscan
[47] = molecular target: Kappa-type opioid receptor (Homo sapiens, UniProt P41145); conditions: Compound concentration 10.0 uM
Mu-type opioid receptor = Mu-type opioid receptor (Homo sapiens, UniProt P35372); conditions: Compound concentration 10.0 uM
[48] = molecular target: D(1B) dopamine receptor (Homo sapiens) (UniProt P21918); conditions: Compound concentration 10.0 uM
[49] = molecular target: D(4) dopamine receptor (Homo sapiens) (UniProt P21917); conditions: Compound concentration 10.0 uM
[50] = molecular target: 5-hydroxytryptamine receptor 1B (Homo sapiens, UniProt P28222); conditions: Compound concentration 10.0 uM

T2 sequence (Q86U86 whole entry): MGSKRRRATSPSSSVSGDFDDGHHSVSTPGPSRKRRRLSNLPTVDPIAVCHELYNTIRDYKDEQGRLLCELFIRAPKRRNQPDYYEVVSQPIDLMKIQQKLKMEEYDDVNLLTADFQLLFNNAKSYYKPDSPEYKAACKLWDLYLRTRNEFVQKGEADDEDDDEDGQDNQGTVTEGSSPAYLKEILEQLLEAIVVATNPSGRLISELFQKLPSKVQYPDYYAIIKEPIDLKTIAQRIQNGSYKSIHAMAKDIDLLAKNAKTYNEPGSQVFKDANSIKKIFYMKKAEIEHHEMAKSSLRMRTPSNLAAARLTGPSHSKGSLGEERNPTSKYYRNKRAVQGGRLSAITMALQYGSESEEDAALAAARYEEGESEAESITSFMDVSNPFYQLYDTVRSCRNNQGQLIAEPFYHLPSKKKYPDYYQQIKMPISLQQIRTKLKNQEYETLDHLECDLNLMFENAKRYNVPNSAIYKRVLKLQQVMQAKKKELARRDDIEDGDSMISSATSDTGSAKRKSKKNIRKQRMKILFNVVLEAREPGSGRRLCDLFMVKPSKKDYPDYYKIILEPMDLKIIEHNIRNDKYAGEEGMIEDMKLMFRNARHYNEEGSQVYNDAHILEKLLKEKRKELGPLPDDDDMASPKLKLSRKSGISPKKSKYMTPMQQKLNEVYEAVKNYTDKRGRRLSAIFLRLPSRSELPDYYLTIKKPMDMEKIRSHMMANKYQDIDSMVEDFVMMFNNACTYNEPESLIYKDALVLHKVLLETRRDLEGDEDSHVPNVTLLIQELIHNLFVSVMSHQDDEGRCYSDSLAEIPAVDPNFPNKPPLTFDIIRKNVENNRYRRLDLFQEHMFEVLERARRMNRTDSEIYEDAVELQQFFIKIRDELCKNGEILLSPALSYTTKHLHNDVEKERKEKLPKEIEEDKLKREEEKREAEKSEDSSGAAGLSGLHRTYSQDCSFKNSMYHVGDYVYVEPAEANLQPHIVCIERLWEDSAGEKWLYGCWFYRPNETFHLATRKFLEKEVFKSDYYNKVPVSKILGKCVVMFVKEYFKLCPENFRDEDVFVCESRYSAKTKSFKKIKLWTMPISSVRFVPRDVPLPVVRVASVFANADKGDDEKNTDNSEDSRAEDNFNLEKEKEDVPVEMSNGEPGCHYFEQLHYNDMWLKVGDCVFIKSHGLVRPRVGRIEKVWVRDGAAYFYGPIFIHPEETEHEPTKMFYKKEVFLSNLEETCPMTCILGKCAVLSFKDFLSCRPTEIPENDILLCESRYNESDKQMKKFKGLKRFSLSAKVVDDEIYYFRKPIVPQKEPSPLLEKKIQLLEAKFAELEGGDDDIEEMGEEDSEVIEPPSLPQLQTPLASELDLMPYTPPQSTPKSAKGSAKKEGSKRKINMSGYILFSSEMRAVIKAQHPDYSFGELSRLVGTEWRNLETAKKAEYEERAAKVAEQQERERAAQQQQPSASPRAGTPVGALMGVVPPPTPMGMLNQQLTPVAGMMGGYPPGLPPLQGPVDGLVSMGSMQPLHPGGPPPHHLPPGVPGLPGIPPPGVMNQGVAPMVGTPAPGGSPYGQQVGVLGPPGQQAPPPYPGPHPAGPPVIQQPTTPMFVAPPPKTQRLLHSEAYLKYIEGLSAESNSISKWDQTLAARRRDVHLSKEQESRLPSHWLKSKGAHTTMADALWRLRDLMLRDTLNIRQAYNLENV
5-hydroxytryptamine receptor 3A, sequence (P46098 whole entry): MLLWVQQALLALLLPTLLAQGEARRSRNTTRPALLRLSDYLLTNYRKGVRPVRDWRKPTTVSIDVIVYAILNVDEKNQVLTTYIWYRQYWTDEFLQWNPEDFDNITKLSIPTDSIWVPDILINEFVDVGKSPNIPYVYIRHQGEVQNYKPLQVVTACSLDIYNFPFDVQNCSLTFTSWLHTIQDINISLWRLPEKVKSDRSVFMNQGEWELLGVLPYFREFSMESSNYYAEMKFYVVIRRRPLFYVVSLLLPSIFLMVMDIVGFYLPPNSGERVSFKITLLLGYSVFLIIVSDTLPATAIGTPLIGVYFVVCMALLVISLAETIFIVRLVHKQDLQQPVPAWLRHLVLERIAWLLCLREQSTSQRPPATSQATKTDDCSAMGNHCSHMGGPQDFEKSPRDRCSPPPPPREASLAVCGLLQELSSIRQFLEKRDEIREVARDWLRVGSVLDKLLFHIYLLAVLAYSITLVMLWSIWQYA
Bromodomain-containing protein 7, sequence (Q9NPI1 whole entry): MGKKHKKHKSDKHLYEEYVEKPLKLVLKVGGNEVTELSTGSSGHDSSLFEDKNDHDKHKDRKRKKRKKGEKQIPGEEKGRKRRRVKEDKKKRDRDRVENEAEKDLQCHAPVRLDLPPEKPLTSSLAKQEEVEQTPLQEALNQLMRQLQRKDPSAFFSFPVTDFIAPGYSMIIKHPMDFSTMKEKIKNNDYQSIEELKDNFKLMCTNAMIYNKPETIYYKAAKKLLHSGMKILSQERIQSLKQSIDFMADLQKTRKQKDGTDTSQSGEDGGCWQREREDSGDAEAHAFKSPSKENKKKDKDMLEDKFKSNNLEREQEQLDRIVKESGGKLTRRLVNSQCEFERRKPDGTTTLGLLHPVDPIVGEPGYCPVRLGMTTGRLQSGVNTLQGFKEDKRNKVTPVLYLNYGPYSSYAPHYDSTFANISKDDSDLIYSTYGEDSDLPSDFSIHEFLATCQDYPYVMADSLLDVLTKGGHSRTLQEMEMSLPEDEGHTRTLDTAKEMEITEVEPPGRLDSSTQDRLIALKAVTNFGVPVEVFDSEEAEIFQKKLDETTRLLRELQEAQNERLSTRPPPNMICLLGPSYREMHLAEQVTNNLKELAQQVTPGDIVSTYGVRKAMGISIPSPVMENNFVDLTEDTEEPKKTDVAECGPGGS
Bromodomain and WD repeat-containing protein 1, sequence (Q9NSI6 whole entry): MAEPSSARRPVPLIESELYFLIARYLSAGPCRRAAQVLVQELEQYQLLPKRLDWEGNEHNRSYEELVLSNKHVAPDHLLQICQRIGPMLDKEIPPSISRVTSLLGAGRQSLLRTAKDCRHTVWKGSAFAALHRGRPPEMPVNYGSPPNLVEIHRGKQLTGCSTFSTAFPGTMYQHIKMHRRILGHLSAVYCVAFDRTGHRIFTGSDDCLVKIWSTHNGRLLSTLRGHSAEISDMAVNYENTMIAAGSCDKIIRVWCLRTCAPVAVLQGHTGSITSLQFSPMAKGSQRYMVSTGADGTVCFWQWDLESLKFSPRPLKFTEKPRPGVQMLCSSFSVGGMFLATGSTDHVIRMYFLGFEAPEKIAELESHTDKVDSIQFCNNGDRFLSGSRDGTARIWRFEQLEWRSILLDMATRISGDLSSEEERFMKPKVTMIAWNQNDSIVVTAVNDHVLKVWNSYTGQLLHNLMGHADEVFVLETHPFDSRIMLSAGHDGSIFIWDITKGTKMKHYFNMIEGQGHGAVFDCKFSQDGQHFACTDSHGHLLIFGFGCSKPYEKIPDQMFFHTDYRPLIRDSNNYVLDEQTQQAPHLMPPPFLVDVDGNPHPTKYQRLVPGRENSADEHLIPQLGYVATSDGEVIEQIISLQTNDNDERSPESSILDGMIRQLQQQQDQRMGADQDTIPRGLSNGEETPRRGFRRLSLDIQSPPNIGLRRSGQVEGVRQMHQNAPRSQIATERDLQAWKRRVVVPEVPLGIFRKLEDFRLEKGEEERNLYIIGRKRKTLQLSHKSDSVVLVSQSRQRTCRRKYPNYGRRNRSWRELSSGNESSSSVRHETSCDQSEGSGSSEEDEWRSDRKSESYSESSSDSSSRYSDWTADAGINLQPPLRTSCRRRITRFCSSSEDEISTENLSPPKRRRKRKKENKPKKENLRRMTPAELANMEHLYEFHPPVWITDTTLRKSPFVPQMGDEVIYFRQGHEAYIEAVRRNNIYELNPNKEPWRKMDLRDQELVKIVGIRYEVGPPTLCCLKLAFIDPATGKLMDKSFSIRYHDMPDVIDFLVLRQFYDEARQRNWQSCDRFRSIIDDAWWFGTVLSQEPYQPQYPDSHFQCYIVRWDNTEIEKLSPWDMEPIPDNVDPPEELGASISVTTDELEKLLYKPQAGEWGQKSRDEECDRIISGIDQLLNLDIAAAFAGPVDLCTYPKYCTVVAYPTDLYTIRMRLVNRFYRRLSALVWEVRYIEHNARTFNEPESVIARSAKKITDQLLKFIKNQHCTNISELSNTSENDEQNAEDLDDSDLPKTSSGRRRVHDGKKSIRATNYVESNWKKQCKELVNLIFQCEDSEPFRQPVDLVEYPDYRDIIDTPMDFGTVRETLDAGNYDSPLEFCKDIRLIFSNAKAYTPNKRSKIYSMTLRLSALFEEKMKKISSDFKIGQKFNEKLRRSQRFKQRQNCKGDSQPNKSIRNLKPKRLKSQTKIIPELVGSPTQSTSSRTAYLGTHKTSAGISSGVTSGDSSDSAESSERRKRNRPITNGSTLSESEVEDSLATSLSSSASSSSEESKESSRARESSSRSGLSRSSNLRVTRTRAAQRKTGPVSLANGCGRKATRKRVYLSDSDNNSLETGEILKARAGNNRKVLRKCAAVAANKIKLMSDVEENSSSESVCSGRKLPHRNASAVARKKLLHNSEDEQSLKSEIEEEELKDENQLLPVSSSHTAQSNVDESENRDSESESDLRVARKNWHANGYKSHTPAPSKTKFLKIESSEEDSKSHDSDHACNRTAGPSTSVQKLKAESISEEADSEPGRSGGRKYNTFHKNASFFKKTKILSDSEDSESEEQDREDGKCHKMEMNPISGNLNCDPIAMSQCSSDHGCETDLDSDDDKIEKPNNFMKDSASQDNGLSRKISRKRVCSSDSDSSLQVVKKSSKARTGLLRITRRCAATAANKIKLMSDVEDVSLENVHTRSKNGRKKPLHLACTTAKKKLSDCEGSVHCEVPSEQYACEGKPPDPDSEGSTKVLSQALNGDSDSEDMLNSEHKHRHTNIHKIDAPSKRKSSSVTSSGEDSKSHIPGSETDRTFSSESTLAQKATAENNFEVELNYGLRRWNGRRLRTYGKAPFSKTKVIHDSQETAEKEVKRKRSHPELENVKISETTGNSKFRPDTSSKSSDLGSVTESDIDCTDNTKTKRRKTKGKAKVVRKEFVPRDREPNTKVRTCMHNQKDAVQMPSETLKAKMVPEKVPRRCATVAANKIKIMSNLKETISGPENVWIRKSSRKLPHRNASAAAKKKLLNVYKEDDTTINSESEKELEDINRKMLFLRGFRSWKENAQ

Structure (SMILES): CNC(=O)c1cc(C(=O)NC2CC2)cn(Cc2ccccc2)c1=O [GSK620]
- IC50 [1]: > 50.1 µM
- EC50 [2]: > 50.1 µM
- IC50 [2]: > 50.1 µM
- Kd [3]: 31.6 µM
- inhibition [4]: 16.1%
- IC50 [5]: > 25.1 µM
- pEC50 [6]: < 4
- pIC50 [6]: < 4
- Kd [7]: 3.98 µM
- inhibition [8]: 13.2%
- Kd [9]: 31.6 µM
- inhibition (D(2) dopamine receptor): -2.98%
- inhibition [10]: 0.52%
- inhibition [11]: -4.41%
- inhibition [12]: 32.1%
- inhibition [13]: 7.27%
- Kd [14]: 31.6 µM
- Kd (CREB-binding protein): 10 µM
- inhibition [15]: 6.03%
- Kd [16]: 25.1 µM
- inhibition [17]: 1.54%
- inhibition [18]: 5.2%
- Kd [19]: 31.6 µM
- Kd [20]: 31.6 µM
- inhibition [21]: -8.16%
- Kd [22]: 7.94 µM
- inhibition [23]: 8.55%
- inhibition [24]: 28.2%
- Kd (Protein polybromo-1 [25]): 31.6 µM
- inhibition [26]: 16.5%
- inhibition [27]: 21.4%
- inhibition [28]: 14.3%
- inhibition [29]: -6.19%
- Kd [30]: 31.6 µM
- inhibition [31]: -5.05%
- inhibition [32]: 10.9%
- Kd [33]: 31.6 µM
- inhibition [34]: -8.9%
- Kd [35]: 31.6 µM
- Kd [36]: 31.6 µM
- inhibition (Rattus norvegicus): 7.71%
- inhibition [37]: -0.64%
- Kd [38]: 31.6 µM
- inhibition [39]: -2.78%
- Kd [40]: 25.1 µM
- inhibition [41]: -9.14%
- Kd [42]: 31.6 µM
- IC50 (C-C motif chemokine 2): 0.794 µM (active)
- inhibition [43]: 2.36%
- pEC50 [44]: < 4
- inhibition [45]: -4.53%
- Kd (Protein polybromo-1 [46]): 31.6 µM
- inhibition [47]: 39.9%
- inhibition (Mu-type opioid receptor): 13.5%
- inhibition [48]: 18.6%
- inhibition [49]: 6.96%
- inhibition [50]: -3.67%
